{
  "source": "paper PMC8597757",
  "about": "“Pharmacokinetic and Safety Profile of the Novel HIV Nonnucleoside Reverse Transcriptase Inhibitor MK-8507 in Adults without HIV” (Antimicrobial Agents and Chemotherapy, 2021)",
  "test_system": "CYP3A4",
  "assay": "Midazolam drug-drug interaction assessment",
  "conditions": "2 mg midazolam with third once-weekly 400-mg dose of MK-8507 vs midazolam alone",
  "method": "Study 2 (protocol MK-8507-002) was a randomized, serial, 3-panel (A to C), single- and multiple-QW rising-dose trial. Single doses of 400, 800, and 1,200 mg MK-8507 or placebo tablet formulation were administered on day 1 to panels A, B, and C, respectively, to continue dose escalation beyond the dose range in study 1. Following a washout period of 3 weeks, the multiple-dose portion of the trial began. Participants in panels A, B, and C received QW doses of 100, 200, or 400 mg MK-8507 or placebo for 3 weeks (i.e., on days 22, 29, and 36), respectively. […] The PK profile of midazolam following a single oral dose alone or after multiple oral dose administration of MK-8507 was also evaluated. […]\nPlasma samples collected for midazolam assay were analyzed by Syneos Health (Québec, Canada). […] The lower limit of quantitation was 20.00 pg/mL, and the analytical range was 20.00 to 20,000.00 pg/mL.\nPK parameter values were calculated by noncompartmental analyses using the software Phoenix WinNonlin Professional (version 6.3) (Certara, Princeton, NJ, USA). […] AUC0–∞ and AUC0–168hr were calculated using the linear-trapezoidal method for ascending concentrations and the log-trapezoidal method for descending concentrations (linear up/log down). […]",
  "data": [
    {"smiles": "Cc1ncc2n1-c1ccc(Cl)cc1C(c1ccccc1F)=NC2", "note": "[Midazolam, midazolam]", "values": [
      {"measurement": "decrease in midazolam AUC when coadministered with MK-8507", "value": 12, "unit": "%"},
      {"measurement": "decrease in midazolam Cmax when coadministered with MK-8507", "value": 19, "unit": "%"}
    ]}
  ]
}
